Measured values taken from patent US20220313698A1, “MODULATORS OF CYSTIC FIBROSIS TRANSMEMBRANE CONDUCTANCE REGULATOR” (Vertex Pharmaceuticals Incorporated, priority 2019, published 2022).

Biological target: CFTR-mediated chloride transport (Homo sapiens, UniProt P13569)
Experiment: Corrector Assay A - membrane potential dye assay (enteroid cells)
Settings: for Corrector Assay A % activity: % of chloride transport of triple combination control (1 μM (14S)-dispiro macrocycle + 3 μM tezacaftor + 300 nM ivacaftor); for EC50: read-out: Corrector Assay A EC50, human intestinal enteroid cells, 18-24 h incubation, acute 10 μM forskolin + 300 nM ivacaftor

Corrector Assay A % activity | EC50 | Compound
+++ (+++ is >60%) | < 1000 nM | Cc1ccc2cc3c(nc2c1)N1C[C@@H](CC[C@@H](c2cc(C(C)(C)C)ccn2)Nc2cccc(n2)S(=O)(=O)NC3=O)CC1(C)C (single isomer, unassigned) [Compound 7]
++ (++ is 30-60%) | < 1000 nM | CC(C)(C)C#Cc1ccc2c(n1)N1C[C@@H](CC[C@@H](c3ccccn3)Nc3cccc(n3)S(=O)(=O)NC2=O)CC1(C)C [Compound 176]
+ (+ is <30%) | < 1000 nM | Cn1ccc(-c2ccc(C3CC[C@@H]4CN(c5nc(C(C)(C)C)ccc5C(=O)NS(=O)(=O)c5cccc(n5)N3)C(C)(C)C4)nc2)n1 (stereo partly drawn) [Compound 59]
+++ (+++ is >60%) | < 1000 nM | CC(C)(C)c1ccc2c(n1)N1C[C@@H](CCC(c3ccncc3)Nc3cccc(n3)S(=O)(=O)NC2=O)CC1(C)C (single isomer, unassigned) [Compound 232]
+++ (+++ is >60%) | < 1000 nM | CCOc1cccc(-c2ccc3c(n2)N2C[C@@H](CC[C@H](c4ccccn4)Nc4cccc(n4)S(=O)(=O)NC3=O)CC2(C)C)n1 [Compound 316]
+ (+ is <30%) | – | CC1(C)CC(C2CC[C@@H]3CN(c4nc(C(C)(C)C)ccc4C(=O)NS(=O)(=O)c4cccc(n4)N2)C(C)(C)C3)CC(C)(C)O1 (single isomer, unassigned) [Compound 43]
++ (++ is 30-60%) | < 1000 nM | CC(C)(C)c1ccc2c(n1)N1C[C@@H](CC[C@H](c3cccc(CCN)n3)Nc3cccc(n3)S(=O)(=O)NC2=O)CC1(C)C [Compound 104]
+++ (+++ is >60%) | < 1000 nM | CC(C)(C)c1ccc2c(n1)N1C[C@@H](CCC(C(C)(C)C)Nc3cccc(n3)S(=O)(=O)NC2=O)CC1(C)C (single isomer, unassigned) [Compound 244]
+ (+ is <30%) | > 3000 nM | CC(C)(C)c1ccc2c(n1)N1C[C@@H](CCC(CCC(C3CC3)C3CC3)Nc3cccc(n3)S(=O)(=O)NC2=O)CC1(C)C (single isomer, unassigned) [Compound 51]
+++ (+++ is >60%) | < 1000 nM | CC(C)(C)c1ccc2c(n1)N1C[C@@H](CCC(c3cc(C4COC4)ccn3)Nc3cccc(n3)S(=O)(=O)NC2=O)CC1(C)C (single isomer, unassigned) [Compound 26]
+++ (+++ is >60%) | < 1000 nM | CC(C)(C)c1ccc2c(n1)N1C[C@@H](CCC(c3cc(C(C)(C)O)ccn3)Nc3cccc(n3)S(=O)(=O)NC2=O)CC1(C)C (single isomer, unassigned) [Compound 36]
++ (++ is 30-60%) | < 1000 nM | CC(O)CC1CC[C@@H]2CN(c3nc(C(C)(C)C)ccc3C(=O)NS(=O)(=O)c3cccc(n3)N1)C(C)(C)C2 (single isomer, unassigned) [Compound 20]
+++ (+++ is >60%) | < 1000 nM | CC(C)(C)c1ccc2c(n1)N1C[C@@H](CC[C@H](c3cccc(N4CCCCC4)n3)Nc3cccc(n3)S(=O)(=O)NC2=O)CC1(C)C [Compound 174]
+++ (+++ is >60%) | > 3000 nM | CC1(C)C[C@@H]2CC[C@H](c3ccccn3)Nc3cccc(n3)S(=O)(=O)NC(=O)c3ccc(C#N)nc3N1C2 [Compound 193, (14S,17R)-12,12-dimethyl-2,2,4-trioxo-17-(pyridin-2-yl)-2λ^6-thia-3,9,11,18,23-pentaazatetracyclo[17.3.1.111,14.05,10]tetracosa-1(22),5,7,9,19(23),20-hexaene-8-carbonitrile]
